The structures appear in SMILES notation.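 A five-concentration, 48-hour dose response in 96-well plates underlies each endpoint, interpolated linearly between surrounding concentrations. At the GI50, growth is halved. The concentration for full growth arrest is given as TGI.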

Test in all cases: growth of human tumour cells (NCI), 48 h
The subject of assay [1] is HOP-92 NSCLC.
Assay [2] deals with HCT-116 colon.
In assay [3] the test system is ACHN renal.
Assay [4] concerns MALME-3M melanoma.
The test system of assay [5] is SK-OV-3 ovarian.
Assay [6] relates to A498 renal.
For assay [7], the system named is T-47D breast.
In assay [8] the test system is MDA-MB-231 breast.
Assay [9] concerns SF-539 CNS.
For assay [10], the system named is UACC-62 melanoma.

As for `O=C1CC[C@H](N2C(=O)c3cccc4c(Cc5ccc(CN6CCOCC6)cc5)ccc2c34)C(=O)N1`, the GI50 in [1] was 8.14 µM; in assay [2] it was 33.6 µM; in [3] it was 78.6 µM; in [4] it was 30 µM; in assay [5] it was over 100 µM; in assay [6] it was over 100 µM. Moreover, the GI50 in [7] is 10.7 µM; in assay [8], 79.5 µM; in [9], over 100 µM. Moreover, the TGI in assay [1], in assay [2], in [3], in assay [4], in assay [5] and in [6] was over 100 µM in each case. Moreover, the TGI in [7], in assay [8] and in assay [9] was over 100 µM throughout.

As to `OC(c1cc(-c2cccc(Cl)c2)nc2ccccc12)C1CCCCN1` (configuration not stated), the GI50 was 1.12 µM in assay [1]; 1.93 µM in assay [10]; 1.75 µM in assay [2]; 1.64 µM in [3]; 2.05 µM in assay [4]; 3.54 µM in [5]. The GI50 was 2.09 µM in [7], 1.66 µM in assay [8] and 1.93 µM in assay [9]. The TGI in assay [1] amounted to 2.51 µM; in assay [10], 3.58 µM; in [2], 3.38 µM; in assay [3], 3.13 µM; in [4], 3.77 µM; in assay [5], 12.2 µM. Besides, the TGI was 3.93 µM in assay [7], 3.37 µM in assay [8] and 3.61 µM in assay [9].

With `Cc1cc(=O)[nH]c(N/N=C/c2cc(Br)ccc2O)n1`, the GI50 in assay [1] is 19.3 µM; in assay [2], 0.353 µM; in assay [3], 0.927 µM; in assay [5], 1.34 µM; in assay [6], 4.06 µM; in assay [7], 0.437 µM. For the same compound, the GI50 in [8] was 0.976 µM; in [9], 2.78 µM. Moreover, the TGI was over 100 µM in [1]; over 100 µM in assay [2]; over 100 µM in [3]; over 100 µM in assay [5]; 25.4 µM in assay [6]; 56.7 µM in assay [7]. Moreover, the values for the TGI in assay [8] and in [9] were over 100 µM and 39 µM, respectively.

On to `O=C(COc1ccc(/C=C2\COc3ccccc3C2=O)cc1)Nc1nccs1`, for which the GI50 was 7.69 µM in [10]; 3.75 µM in [2]; 16.6 µM in assay [3]; 16.3 µM in [4]; 30.9 µM in [5]; 19.3 µM in assay [6]. The GI50 in [7] is 16.1 µM; in [8], 17.8 µM; in [9], 15 µM. Besides, the TGI in [10] turned out to be 21.1 µM; in assay [2], 12.8 µM; in assay [3], 42.3 µM; in assay [4], 36.2 µM; in assay [5], 69.5 µM; in assay [6], 33.7 µM. The TGI in assay [7] worked out at 38.8 µM; in [8], 60 µM; in assay [9], 29.4 µM.

`COC(=O)[C@@H](C)C[C@H](Cc1cn(C)c2ccccc12)NC(=O)c1csc([C@@H](C[C@H](C(C)C)N(C)C(=O)[C@@H](NC(=O)[C@H]2CCCCN2C)C(C)C)OC(C)=O)n1`: the GI50 in assay [1] was 0.0163 µM; in [10], 0.00745 µM; in assay [2] it was 0.00707 µM; in assay [3] it was 0.153 µM; in [5] it was 0.0602 µM; in assay [6], 0.0456 µM. Also, the GI50 in assay [7] is over 16.7 µM; in [8], 0.0239 µM; in [9], 0.0173 µM. Besides, the TGI is 4.02 µM in assay [1]; over 16.7 µM in [10]; over 16.7 µM in [2]; over 16.7 µM in assay [3]; over 16.7 µM in [5]; 1.12 µM in assay [6]. For the same compound, the TGI was over 16.7 µM in assay [7], 0.966 µM in assay [8] and 0.116 µM in [9].

Take `COc1cc(/C=C2\C[C@H]3[C@@H]4CC=C5C[C@@H](O)CC[C@]5(C)[C@H]4CC[C@]3(C)[C@H]2O)ccc1OCCN1CCCC1`: the GI50 in assay [1] was 8.26 µM; in assay [10], 8.9 µM; in [2], 8.27 µM; in [3] it was 8.38 µM; in assay [6] it was 25.1 µM; in assay [7], 19.9 µM. For the same compound, the GI50 in [8] is 11.7 µM; in assay [9], 8.28 µM. Also, the TGI in [1] is 17.1 µM; in [10] it was 16.9 µM; in assay [2] it was 24.8 µM; in assay [3], 16.9 µM; in assay [6], over 50 µM; in [7] it was over 50 µM. Further, the values for the TGI in assay [8] and in [9] were 23 µM and 17.6 µM, respectively.

As to `COc1ccc2sc3cccc(NCCN(C)C)c3c(=O)c2c1`, the GI50 was 1.76 µM in assay [10]; 2.78 µM in assay [2]; 2.4 µM in assay [3]; 1.95 µM in assay [4]; 4.26 µM in [5]; 1.2 µM in [6]. The figures for the GI50 in [7], in assay [8] and in [9] were 2.76 µM, 1.57 µM and 3.52 µM, respectively. In addition, the TGI in assay [10] amounted to 3.24 µM; in [2] it was 9.69 µM; in assay [3], 6.92 µM; in [4], 3.88 µM; in assay [5], 15 µM; in assay [6], 9.38 µM. Besides, the TGI amounted to 9.78 µM in assay [7], 4.29 µM in assay [8] and 13.3 µM in assay [9].

As for `Cc1c(O)c2ccccc2oc1=O`, the TGI in assay [1], in [10], in [2], in assay [3], in assay [4] and in assay [6] was over 100 µM in each case. The TGI in assay [7], in assay [8] and in assay [9] was over 100 µM in each case.

Consider `O=C1/C(=C\c2ccc(F)cc2)CN(C(=O)c2ccccc2)C/C1=C\c1ccc(F)cc1`, for which the GI50 in [1] was 1.48 µM; in assay [10], 1.84 µM; in assay [2] it was 0.428 µM; in [3], 1.75 µM; in [4] it was 3.66 µM; in [5], 5.95 µM. Further, the GI50 was 6.22 µM in [7], 2.27 µM in [8] and 2.56 µM in [9]. Also, the TGI turned out to be 9.1 µM in assay [1]; 4.83 µM in assay [10]; 1.71 µM in assay [2]; 3.77 µM in assay [3]; 12.2 µM in assay [4]; 19.5 µM in assay [5]. In addition, the values for the TGI in [7], in assay [8] and in [9] were 71.4 µM, 6.39 µM and 7.58 µM, respectively.

For the compound `Nc1ccccc1NC(=O)c1ccc(CNc2nccc(-c3cccnc3)n2)cc1`, the GI50 is 0.206 µM in [1]; 0.476 µM in [10]; 0.362 µM in [2]; 1.14 µM in assay [3]; 0.57 µM in assay [4]; 1.37 µM in assay [5]. Also, the GI50 in assay [7] was 0.657 µM; in assay [8], 2.44 µM; in assay [9], 0.805 µM. Also, the TGI was 2.7 µM in assay [1]; 2.17 µM in [10]; over 100 µM in assay [2]; over 27.8 µM in assay [3]; over 21.7 µM in [4]; over 28.7 µM in assay [5]. The TGI in [7] was over 22.8 µM; in assay [8], over 100 µM; in [9], 13.1 µM.

Regarding `CC[C@H]1CN2CCc3cc(OC)c(OC)cc3C2C[C@@H]1CC1NCCc2cc(OC)c(OC)cc21` (some centres not stated), the TGI was found to be 0.0464 µM in assay [1]; 0.316 µM in assay [10]; 0.0491 µM in assay [2]; 1.42 µM in assay [3]; 0.222 µM in [4]; 0.292 µM in assay [5]. Besides, the figures for the TGI in [6], in assay [7] and in assay [8] were 0.313 µM, 0.0773 µM and 0.0994 µM, respectively.

On to `Nc1cc(F)ccc1CC(=O)O`, for which the TGI in assay [10], in assay [2], in assay [3], in assay [4], in [5] and in [6] was over 100 µM in each case. For the same compound, the TGI in assay [7], in assay [8] and in [9] was over 100 µM each time.

Consider `O=C(O)/C=C/C(=O)N1Cc2cc3ccccc3nc2C1`, for which the TGI in [1], in [10], in assay [2], in [3], in assay [4] and in assay [5] was over 100 µM throughout. The TGI in assay [7], in assay [8] and in [9] was over 100 µM each time.

Turning to `COC1=CC(c2ccc[nH]2)=N/C1=C\c1[nH]c(C)c(CC(=O)OCc2ccccc2)c1CCC(=O)OCc1ccccc1`, the GI50 is 0.231 µM in [1]; 0.233 µM in assay [2]; 0.333 µM in [3]; 0.886 µM in assay [4]; 0.523 µM in assay [5]; 0.288 µM in assay [6]. For the same compound, the results for the GI50 in assay [7], in [8] and in [9] were 0.256 µM, 0.224 µM and 0.458 µM, respectively. In addition, the TGI in assay [1] was found to be 0.809 µM; in assay [2], 1.04 µM; in assay [3] it was 1.02 µM; in assay [4], 2.62 µM; in [5], 3.11 µM; in [6], 2.42 µM. The TGI in assay [7] came to 0.922 µM; in [8] it was 1.67 µM; in assay [9], 1.74 µM.

Turning to `CCC(CC)c1nc(Nc2ccc(C(=O)OC)cc2)c2ccccc2n1`, the GI50 in [1] was 18.6 µM; in assay [10], 9.13 µM; in assay [2], 12.9 µM; in assay [3] it was 8.1 µM; in assay [5], 9.54 µM; in assay [7], 7.88 µM. Besides, the results for the GI50 in assay [8] and in [9] were 8.59 µM and over 20.5 µM, respectively. The TGI in [1] is over 26.4 µM; in assay [10], 18.6 µM; in assay [2] it was over 28.6 µM; in assay [3] it was 18.1 µM; in [5] it was 19 µM; in assay [7], 17.5 µM. Further, the TGI in assay [8] is 22.8 µM; in assay [9] it was over 28.6 µM.

As for `N#Cc1c(NC(=O)NCc2ccccc2)sc2c1CCCC2`, the GI50 in [1] was 1.79 µM; in assay [10], 0.455 µM; in [2] it was 0.533 µM; in [3] it was 0.677 µM; in [4], 0.598 µM; in [5], 9.2 µM. Further, the figures for the GI50 in [6], in assay [8] and in assay [9] were 0.236 µM, 1.73 µM and 0.37 µM, respectively. Besides, the TGI in assay [1] is 71 µM; in [10] it was over 100 µM; in assay [2] it was over 100 µM; in assay [3], over 100 µM; in assay [4] it was over 100 µM; in assay [5], over 100 µM. Further, the TGI in assay [6] is 1.13 µM; in assay [8], over 42.4 µM; in assay [9], 4.68 µM.

Consider `COc1ccc(/C=C(/C(=O)N2CCN(c3ccccc3)CC2)c2cc(OC)c(OC)c(OC)c2)cc1N`, for which the GI50 in [1] was 3.53 µM; in assay [10], 0.272 µM; in [2] it was 0.356 µM; in assay [3], 0.612 µM; in assay [4], 12.2 µM; in assay [5] it was 0.472 µM. Besides, the GI50 in assay [6] was 0.142 µM; in assay [8], 0.411 µM; in assay [9], 0.223 µM. Besides, the TGI in assay [1], in assay [10], in assay [2], in assay [3], in assay [4] and in assay [5] was over 100 µM throughout. Moreover, the TGI is 0.778 µM in assay [6], 24.4 µM in assay [8] and 0.797 µM in assay [9].

Regarding `CO/C=C/C(=O)c1cc2cnc3c(=N)cc(NC(=O)C(C)C)c([nH]1)c23`, the GI50 is 0.00796 µM in assay [1]; 0.0408 µM in [10]; 0.0585 µM in [2]; 0.1 µM in assay [3]; 0.146 µM in assay [5]; 0.1 µM in assay [6]. Further, the values for the GI50 in [7], in assay [8] and in [9] were 0.00998 µM, 0.0883 µM and 0.0596 µM, respectively. For the same compound, the TGI amounted to 0.0456 µM in assay [1]; 0.185 µM in assay [10]; 0.282 µM in assay [2]; 1.67 µM in assay [3]; 0.873 µM in [5]; 0.602 µM in assay [6]. The results for the TGI in assay [7], in assay [8] and in assay [9] were 0.0439 µM, 0.66 µM and 0.333 µM, respectively.

Values taken from PubChem BioAssay (NCI).
